Test results from patent US20250215029A1 (Recludix Pharma, Inc., priority 2022, published 2025).
pIC50: −log10 of the molar value.

The compounds below were run against T1, pY705-STAT3 in PBMC (Homo sapiens, UniProt P40763) (assay: MSD-pSTAT-PBMC Assay (pSTAT3, IL-6 stimulated)). Settings: PBMC, compound 3 hrs, then 10 ng/mL IL-6 for 10 min; Table 115; read-out: STAT3.
T1 construct: Cryopreserved Peripheral Blood Mononuclear Cells (PBMC) are from AllCells; host or cells: cryopreserved PBMC
Assay type: cell-based
Procedure, shortened: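 pY705-STAT3 was detected electrochemiluminescently on total-STAT3 capture plates, using lysates of human PBMCs given compound for 3 h and then IL-6 (10 ng/mL, 10 min). Values were background-subtracted against unstimulated wells and set relative to DMSO. IC50 was fitted with variable slope.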

T1 sequence (P40763 whole entry): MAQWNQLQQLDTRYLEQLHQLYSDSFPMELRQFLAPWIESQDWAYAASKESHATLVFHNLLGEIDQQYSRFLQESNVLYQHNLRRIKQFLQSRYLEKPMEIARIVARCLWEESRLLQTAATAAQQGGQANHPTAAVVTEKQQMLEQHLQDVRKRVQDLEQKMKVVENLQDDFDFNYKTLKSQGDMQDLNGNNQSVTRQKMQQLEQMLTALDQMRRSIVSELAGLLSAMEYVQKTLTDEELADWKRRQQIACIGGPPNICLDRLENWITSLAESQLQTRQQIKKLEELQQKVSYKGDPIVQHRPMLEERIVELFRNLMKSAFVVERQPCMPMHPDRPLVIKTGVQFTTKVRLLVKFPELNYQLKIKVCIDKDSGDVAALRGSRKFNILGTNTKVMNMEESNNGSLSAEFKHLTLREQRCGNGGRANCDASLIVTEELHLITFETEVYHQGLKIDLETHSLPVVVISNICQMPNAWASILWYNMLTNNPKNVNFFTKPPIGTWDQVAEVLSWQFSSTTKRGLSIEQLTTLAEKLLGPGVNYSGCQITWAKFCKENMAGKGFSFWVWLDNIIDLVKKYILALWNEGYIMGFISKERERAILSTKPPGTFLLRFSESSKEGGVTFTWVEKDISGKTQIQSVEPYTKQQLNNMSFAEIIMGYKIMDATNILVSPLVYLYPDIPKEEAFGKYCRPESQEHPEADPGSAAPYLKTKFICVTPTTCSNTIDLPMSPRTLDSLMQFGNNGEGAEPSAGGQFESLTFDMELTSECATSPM

Compound | pIC50
CCCOC(=O)[C@H](C)NP(=O)(Oc1ccccc1)C(F)c1ccc2sc(C(=O)N[C@H]3CCC[C@H]4CC[C@@H](C(=O)N5CC(c6cnccc6C#N)C5)N4C3=O)cc2c1 (stereo partly drawn) [Compound 273, propyl (((2-(((3S,6S,9aS)-3-(3-(4-cyanopyridin-3-yl)azetidine-1-carbonyl)-5-oxooctahydro-1H-pyrrolo[1,2-a]azepin-6-yl)carbamoyl)benzo [b]thiophen-5-yl)fluoromethyl) (phenoxy)phosphoryl)-L-alaninate] | 6.00 to 7.00
CCCOC(=O)[C@H](C)NP(=O)(Cc1ccc2sc(C(=O)N[C@H]3CCCC[C@H]4CC[C@@H](C(=O)N5CC(c6cnccc6F)C5)N4C3=O)cc2c1)Oc1ccccc1 (stereo partly drawn) [Compound 274, propyl (((2-(((3S,6S,10aS)-3-(3-(4-fluoropyridin-3-yl)azetidine-1-carbonyl)-5-oxodecahydropyrrolo [1,2-a]azocin-6-yl)carbamoyl)benzo [b]thiophen-5-yl)methyl)(phenoxy)phosphoryl)-L-alaninate] | > 7.00
CCCOC(=O)[C@H](C)NP(=O)(Cc1ccc2sc(C(=O)N[C@H]3CCC[C@H]4CC[C@@H](C(=O)N5CC(c6c(F)ccnc6OC)C5)N4C3=O)cc2c1)Oc1ccccc1 (stereo partly drawn) [Compound 275, propyl (((2-(((3S,6S,9aS)-3-(3-(4-fluoro-2-methoxypyridin-3-yl)azetidine-1-carbonyl)-5-oxooctahydro-1H-pyrrolo[1,2-a]azepin-6-yl)carbamoyl)benzo [b]thiophen-5-yl)methyl)(phenoxy)phosphoryl)-L-alaninate] | < 5.52
CC[C@H](C)OC(=O)[C@H](C)NP(=O)(Cc1ccc2sc(C(=O)N[C@H]3CCC[C@H]4CC[C@@H](C(=O)N5CC(c6cccnc6)C5)N4C3=O)cc2c1)Oc1ccccc1 (stereo partly drawn) [Compound 276, (S)-sec-butyl (((2-(((3S,6S,9aS)-5-oxo-3-(3-(pyridin-3-yl)azetidine-1-carbonyl)octahydro-1H-pyrrolo[1,2-a]azepin-6-yl)carbamoyl)benzo [b]thiophen-5-yl)methyl)(phenoxy)phosphoryl)-L-alaninate] | 6.00 to 7.00
CC(C)COC(=O)[C@H](C)NP(=O)(Oc1ccccc1)C(F)c1ccc2sc(C(=O)N[C@H]3CCC[C@H]4CC[C@@H](C(=O)N5CC(c6cnccc6F)C5)N4C3=O)cc2c1 (stereo partly drawn) [Compound 277, isobutyl ((fluoro(2-(((3S,6S,9aS)-3-(3-(4-fluoropyridin-3-yl)azetidine-1-carbonyl)-5-oxooctahydro-1H-pyrrolo[1,2-a]azepin-6-yl)carbamoyl)benzo [b]thiophen-5-yl)methyl)(phenoxy)phosphoryl)-L-alaninate] | > 7.00
CCCOC(=O)[C@H](C)NP(=O)(Cc1ccc2sc(C(=O)N[C@H]3CCC[C@H]4CC[C@@H](C(=O)N5CC(c6cnc(F)cc6OC)C5)N4C3=O)cc2c1)Oc1ccccc1 (stereo partly drawn) [Compound 278, propyl (((2-(((3S,6S,9aS)-3-(3-(6-fluoro-4-methoxypyridin-3-yl)azetidine-1-carbonyl)-5-oxooctahydro-1H-pyrrolo[1,2-a]azepin-6-yl)carbamoyl)benzo [b]thiophen-5-yl)methyl)(phenoxy)phosphoryl)-L-alaninate] | 6.00 to 7.00
CCCCOC(=O)[C@H](C)NP(=O)(Cc1ccc2sc(C(=O)N[C@H]3CCC[C@H]4CC[C@@H](C(=O)N5CC(c6cccnc6)C5)N4C3=O)cc2c1)Oc1ccccc1 (stereo partly drawn) [Compound 279, butyl (((2-(((3S,6S,9aS)-5-oxo-3-(3-(pyridin-3-yl)azetidine-1-carbonyl)octahydro-1H-pyrrolo[1,2-a]azepin-6-yl)carbamoyl)benzo [b]thiophen-5-yl)methyl)(phenoxy)phosphoryl)-L-alaninate] | > 7.00
COC1(c2cccnc2)CN(C(=O)[C@@H]2CC[C@@H]3CCCC[C@H](NC(=O)c4cc5cc(CP(=O)(N[C@@H](C)C(=O)OCC(C)C)Oc6ccccc6)ccc5s4)C(=O)N32)C1 (stereo partly drawn) [Compound 281, isobutyl (((2-(((3S,6S,10aS)-3-(3-methoxy-3-(pyridin-3-yl)azetidine-1-carbonyl)-5-oxodecahydropyrrolo [1,2-a]azocin-6-yl)carbamoyl)benzo [b]thiophen-5-yl)methyl)(phenoxy)phosphoryl)-L-alaninate] | > 7.00
Cc1ccncc1C1CN(C(=O)[C@@H]2CC[C@@H]3CCCC[C@H](NC(=O)c4cc5cc(CP(=O)(N[C@@H](C)C(=O)OCC(C)C)Oc6ccccc6)ccc5s4)C(=O)N32)C1 (stereo partly drawn) [Compound 282, isobutyl (((2-(((3S,6S,10aS)-3-(3-(4-methylpyridin-3-yl)azetidine-1-carbonyl)-5-oxodecahydropyrrolo [1,2-a]azocin-6-yl)carbamoyl)benzo [b]thiophen-5-yl)methyl)(phenoxy)phosphoryl)-L-alaninate] | > 7.00
CCCOC(=O)[C@H](C)NP(=O)(Cc1ccc2sc(C(=O)N[C@H]3C[C@H](C)C[C@H]4CC[C@@H](C(=O)N5CC(c6cnccc6C)C5)N4C3=O)cc2c1)Oc1ccccc1 (stereo partly drawn) [Compound 283, propyl (((2-(((3S,6S,8S,9aR)-8-methyl-3-(3-(4-methylpyridin-3-yl)azetidine-1-carbonyl)-5-oxooctahydro-1H-pyrrolo[1,2-a]azepin-6-yl)carbamoyl)benzo [b]thiophen-5-yl)methyl)(phenoxy)phosphoryl)-L-alaninate] | > 7.00
CCCCOC(=O)[C@H](C)N(C)P(=O)(Oc1ccccc1)C(F)(F)c1ccc2sc(C(=O)N[C@H]3CCC[C@H]4CC[C@@H](C(=O)N5CC(c6cccnc6)C5)N4C3=O)cc2c1 (stereo partly drawn) [Compound 285, butyl N-((difluoro(2-(((3S,6S,9aS)-5-oxo-3-(3-(pyridin-3-yl)azetidine-1-carbonyl)octahydro-1H-pyrrolo[1,2-a]azepin-6-yl)carbamoyl)benzo [b]thiophen-5-yl)methyl)(phenoxy)phosphoryl)-N-methyl-L-alaninate] | < 5.52
CCCOC(=O)[C@H](C)NP(=O)(Cc1ccc2sc(C(=O)N[C@H]3CC[C@H](C)C[C@H]4CC[C@@H](C(=O)N5CC(c6cnccc6C)C5)N4C3=O)cc2c1)Oc1ccccc1 (stereo partly drawn) [Compound 286, propyl (((2-(((3S,6S,9S,10aR)-9-methyl-3-(3-(4-methylpyridin-3-yl)azetidine-1-carbonyl)-5-oxodecahydropyrrolo [1,2-a]azocin-6-yl)carbamoyl)benzo [b]thiophen-5-yl)methyl)(phenoxy)phosphoryl)-L-alaninate] | > 7.00
CCCOC(=O)[C@H](C)NP(=O)(Cc1ccc2sc(C(=O)N[C@H]3CC[C@@H](C)C[C@H]4CC[C@@H](C(=O)N5CC(c6cnccc6C)C5)N4C3=O)cc2c1)Oc1ccccc1 (stereo partly drawn) [Compound 287, propyl (((2-(((3S,6S,9R,10aR)-9-methyl-3-(3-(4-methylpyridin-3-yl)azetidine-1-carbonyl)-5-oxodecahydropyrrolo [1,2-a]azocin-6-yl)carbamoyl)benzo [b]thiophen-5-yl)methyl)(phenoxy)phosphoryl)-L-alaninate] | > 7.00
CCCCOC(=O)[C@H](C)NP(=O)(Cc1ccc2sc(C(=O)N[C@H]3CCC[C@H]4CC[C@@H](C(=O)N5CC(c6ncccc6C)C5)N4C3=O)cc2c1)Oc1ccccc1 (stereo partly drawn) [Compound 288, butyl (((2-(((3S,6S,9aS)-3-(3-(3-methylpyridin-2-yl)azetidine-1-carbonyl)-5-oxooctahydro-1H-pyrrolo[1,2-a]azepin-6-yl)carbamoyl)benzo [b]thiophen-5-yl)methyl)(phenoxy)phosphoryl)-L-alaninate] | 6.00 to 7.00
CCCOC(=O)[C@H](C)NP(=O)(Cc1ccc2sc(C(=O)N[C@H]3CCC[C@H]4CC[C@@H](C(=O)N5CC(c6cccc(C#N)n6)C5)N4C3=O)cc2c1)Oc1ccccc1 (stereo partly drawn) [Compound 289, propyl (((2-(((3S,6S,9aS)-3-(3-(6-cyanopyridin-2-yl)azetidine-1-carbonyl)-5-oxooctahydro-1H-pyrrolo[1,2-a]azepin-6-yl)carbamoyl)benzo [b]thiophen-5-yl)methyl)(phenoxy)phosphoryl)-L-alaninate] | > 7.00
CCCOC(=O)[C@H](C)NP(=O)(Cc1ccc2sc(C(=O)N[C@H]3CCC[C@H]4CC[C@@H](C(=O)N5CC(c6nccc(C#N)n6)C5)N4C3=O)cc2c1)Oc1ccccc1 (stereo partly drawn) [Compound 290, propyl (((2-(((3S,6S,9aS)-3-(3-(4-cyanopyrimidin-2-yl)azetidine-1-carbonyl)-5-oxooctahydro-1H-pyrrolo[1,2-a]azepin-6-yl)carbamoyl)benzo [b]thiophen-5-yl)methyl)(phenoxy)phosphoryl)-L-alaninate] | 6.00 to 7.00
C[C@H](NP(=O)(Cc1ccc2sc(C(=O)N[C@H]3CCC[C@H]4CC[C@@H](C(=O)N5CC(c6cccnc6)C5)N4C3=O)cc2c1)Oc1ccccc1)C(=O)OCCC(F)(F)F (stereo partly drawn) [Compound 291, 3,3,3-trifluoropropyl (((2-(((3S,6S,9aS)-5-oxo-3-(3-(pyridin-3-yl)azetidine-1-carbonyl)octahydro-1H-pyrrolo[1,2-a]azepin-6-yl)carbamoyl)benzo [b]thiophen-5-yl)methyl)(phenoxy)phosphoryl)-L-alaninate] | > 7.00
CCCOC(=O)[C@H](C)NP(=O)(Cc1ccc2sc(C(=O)N[C@H]3CCC[C@H]4CC[C@@H](C(=O)N5CC(c6cccnc6)C5)N4C3=O)cc2c1)Oc1c(C)cccc1C (stereo partly drawn) [Compound 293, propyl ((2,6-dimethylphenoxy) ((2-(((3S,6S,9aS)-5-oxo-3-(3-(pyridin-3-yl)azetidine-1-carbonyl)octahydro-1H-pyrrolo[1,2-a]azepin-6-yl)carbamoyl)benzo [b]thiophen-5-yl)methyl)phosphoryl)-L-alaninate] | > 7.00
